Source: article PMC8851638 (ACS Omega, 2022)
Values after ≈ are worked out from the molar mass of the structure shown. Values joined by “and” are separate entries in the source; they are usually repeats but may differ in a detail not shown here. Equal entries are not always repeated.

Assays:
RBCs = assay: Hemolytic assay; format: cell-based; conditions: human RBCs; compounds 1.0 mg/mL; Triton X-100 0.1% v/v; 37 °C, 35 min
B. subtilis (MDR00423) = assay: MIC and MBC by broth microdilution; format: cell-based; conditions: Bacillus subtilis, read-out: MIC (mean ± SEM), B. subtilis; broth microdilution
S. aureus (MDR00231) [1] = assay: MIC and MBC by broth microdilution; format: cell-based, Staphylococcus aureus; conditions: Staphylococcus aureus, read-out: MIC (mean ± SEM), S. aureus; broth microdilution
S. epidermidis biofilm = assay: Staphylococcus biofilm mass reduction; format: cell-based; conditions: at their MIC
E. coli (MDR00501) [2] = assay: MIC and MBC by broth microdilution; format: cell-based; conditions: Escherichia coli, read-out: MIC (mean ± SEM), E. coli; broth microdilution
S. aureus biofilm = assay: Staphylococcus biofilm mass reduction; format: cell-based; conditions: at their MIC
[3] = tested on: S. epidermidis (MDR00223); assay: MIC and MBC by broth microdilution; format: cell-based, Staphylococcus epidermidis; conditions: Staphylococcus epidermidis, read-out: MIC (mean ± SEM), S. epidermidis; broth microdilution
S. aureus (MDR00231) [4] = assay: Agar well-diffusion antimicrobial sensitivity assay; format: cell-based, Staphylococcus aureus; conditions: Staphylococcus aureus, read-out: Inhibition Zone (IZ)
[5] = tested on: C. albicans200 (MDR00200); assay: as above; format: cell-based, Candida albicans; conditions: Candida albicans, read-out: Inhibition Zone (IZ)
E. coli (MDR00501) [6] = assay: as above; format: cell-based; conditions: Escherichia coli, read-out: Inhibition Zone (IZ)
[7] = tested on: S. epidermidis (MDR00223); assay: as above; format: cell-based, Staphylococcus epidermidis; conditions: Staphylococcus epidermidis, read-out: Inhibition Zone (IZ)
[8] = tested on: C. albicans100 (MDR00100); assay: as above; format: cell-based, Candida albicans; conditions: Candida albicans, read-out: Inhibition Zone (IZ)

Row | MIC (B. subtilis (MDR00423)) [µg/mL] | MIC (S. aureus (MDR00231) [1]) [µg/mL] | MIC (E. coli (MDR00501) [2]) [µg/mL] | MIC [3] [µg/mL] | Molecule | %lysis of RBCs (RBCs) | reduction of biofilm formation (S. epidermidis biofilm) [%] | reduction of biofilm formation (S. aureus biofilm) [%] | zone of inhibition at 100000 µg/mL (S. aureus (MDR00231) [4]) [mm] | zone of inhibition at 100000 µg/mL [5] [mm] | zone of inhibition at 100000 µg/mL (E. coli (MDR00501) [6]) [mm] | zone of inhibition at 100000 µg/mL [7] [mm] | zone of inhibition at 100000 µg/mL [8] [mm]
1 | 0.48 ± 0.3 (≈ 1.45 µM) | 0.48 ± 0.1 (≈ 1.45 µM) | 0.46 ± 0.4 (≈ 1.39 µM) | 0.47 ± 0.2 (≈ 1.42 µM) | O=C(O)c1cn(C2CC2)c2cc(N3CCNCC3)c(F)cc2c1=O [CIP, Ciprofloxacin, reference compound] | 16.2% and 16.2 ± 0.5% | 38 | 43.2 |  |  |  |  | 
2 |  |  |  |  | Cc1ccc(-c2nn(-c3ccccc3)cc2C=c2sc(=CC#N)[nH]c2=O)cc1 [Compound 3b, 2-(4-Oxo-5-((1-phenyl-3-(p-tolyl)-1H-pyrazol-4-yl)methylene)thiazolidin-2-ylidene)acetonitrile] |  |  |  | 15 ± 0.63 | 15 ± 0.8 | 16 ± 0.34 | 17 ± 0.21 | 13 ± 0.22
3 |  |  |  |  | CCOC(=O)C=c1[nH]c(=O)c(=Cc2cn(-c3ccccc3)nc2-c2ccccc2)s1 [Compound 3c, Ethyl 2-(5-((1,3-Diphenyl-1H-pyrazol-4-yl)methylene)-4-oxothiazolidin-2-ylidene)acetate] |  |  |  | 13 ± 0.46 | 14 ± 0.3 | 18 ± 0.33 | 15 ± 0.7 | 15 ± 0.45
4 |  |  |  |  | CCOC(=O)C=c1[nH]c(=O)c(=Cc2cn(-c3ccccc3)nc2-c2ccc(C)cc2)s1 [Compound 3d, Ethyl-2-(4-oxo-5-((1-phenyl-3-(p-tolyl)-1H-pyrazol-4-yl)methylene)thiazolidin-2-ylidene)-acetate] |  |  |  | 15 ± 0.78 | 16 ± 0.22 | 15 ± 0.67 | 16 ± 0.1 | 13 ± 0.6
5 |  |  |  |  | Cc1ccc(-c2nn(-c3ccccc3)cc2C=C(C#N)C2=NC(=O)CS2)cc1 [Compound 4b, 2-(4-Oxo-4,5-dihydrothiazol-2-yl)-3-(1-phenyl-3-(p-tolyl)-1H-pyrazol-4-yl)acrylonitrile] |  |  |  | 20 ± 0.2 | 23 ± 0.22 | 22 ± 0.6 | 19 ± 0.31 | 22 ± 0.1
6 |  |  |  |  | N#CC(=Cc1ccc(Cl)cc1)C1=NC(=O)C(=Cc2cn(-c3ccccc3)nc2-c2ccccc2)S1 [Compound 5b, 3-(4-Chlorophenyl)-2-(5-((1,3-diphenyl-1H-pyrazol-4-yl)methylene)-4-oxo-4,5-dihydrothiazol-2-yl)acrylonitrile] |  |  |  | 24 ± 0.2 | 25 ± 0.77 | 22 ± 0.56 | 21 ± 0.1 | 23 ± 0.26
7 |  |  |  |  | N#CC(=Cc1ccc([N+](=O)[O-])cc1)C1=NC(=O)C(=Cc2cn(-c3ccccc3)nc2-c2ccccc2)S1 [Compound 5c, 2-(5-((1,3-Diphenyl-1H-pyrazol-4-yl)methylene)-4-oxo-4,5-dihydrothiazol-2-yl)-3-(4-nitrophenyl)acrylonitrile] |  |  |  | 22 ± 0.66 | 24 ± 0.13 | 21 ± 0.45 | 24 ± 0.28 | 21 ± 0.52
8 |  |  |  |  | CCOC(=O)c1c(N)csc1-c1cn(-c2ccccc2)nc1-c1ccccc1 [Compound 7a, Ethyl 4-Amino-2-(1,3-diphenyl-1H-pyrazol-4-yl)thiophene-3-carboxylate] |  |  |  | 24 ± 0.4 | 25 ± 0.33 | 22 ± 0.41 | 21 ± 0.12 | 21 ± 0.32
9 |  |  |  |  | Cc1c(NN=C2SC(CC#N)=NC2=O)c(=O)n(-c2ccccc2)n1C [Compound 14, 2-(5-(2-(1,5-Dimethyl-3-oxo-2-phenyl-2,3-dihydro-1H-pyrazol-4-yl)hydrazono)-4-oxo-4,5-dihydrothiazol-2-yl)acetonitrile] |  |  |  | 16 ± 0.21 | 20 ± 0.88 | 17 ± 0.35 | 19 ± 0.23 | 18 ± 0.66
10 |  |  |  |  | Cc1c(NN=C2SC(C(C#N)=Cc3ccccc3)=NC2=O)c(=O)n(-c2ccccc2)n1C [Compound 15a, 2-(5-(2-(1,5-Dimethyl-3-oxo-2-phenyl-2,3-dihydro-1H-pyrazol-4-yl)hydrazono)-4-oxo-4,5-dihydrothiazol-2-yl)-3-phenylacrylonitrile] |  |  |  | 16 ± 0.59 | 20 ± 0.58 | 15 ± 0.77 | 18 ± 0.56 | 16 ± 0.44
11 |  |  |  |  | Cc1c(NN=C2SC(C(C#N)=Cc3ccc(Cl)cc3)=NC2=O)c(=O)n(-c2ccccc2)n1C [Compound 15b, 3-(4-Chlorophenyl)-2-(5-(2-(1,5-dimethyl-3-oxo-2-phenyl-2,3-dihydro-1H-pyrazol-4-yl)hydrazono)-4-oxo-4,5-dihydrothiazol-2-yl)acrylonitrile] |  |  |  | 18 ± 0.44 | 18 ± 0.76 | 16 ± 0.85 | 16 ± 0.25 | 16 ± 0.34
12 |  |  |  |  | Triton X-100 [reference compound] | 95.12% and 95.12 ± 0.721% |  |  |  |  |  |  | 
